Assay results published in US20230016424A1, “HYBRID AMIDE DERIVATIVES OF AMPHOTERICIN B” (The Board of Trustees of the University of Illinois, priority 2019, published 2023).
≈ marks a conversion by molar mass, not a printed value.

How the values were obtained:
C. albicans = assay: MIC; format: cell-based
[1] = test system: C. albicans SN250, C. albicans, C. krusei, C. glabrata, C. tropicalis, A. fumigatus 91, 1163, 1100; assay: Average MIC over the tested strains; format: cell-based; conditions: for MIC: average over the 8 listed strains; for Average MIC: Tables 8 and 9, average over the 8 listed strains
A. fumigatus 91 = assay: MIC; format: cell-based
C. glabrata = assay: MIC; format: cell-based
C. albicans SN250 = assay: MIC; format: cell-based, Candida albicans
C. tropicalis = assay: MIC; format: cell-based
A. fumigatus 1100 = assay: MIC; format: cell-based
C. krusei = assay: MIC; format: cell-based
A. fumigatus 1163 = assay: MIC; format: cell-based
Plasma Stability = format: in vitro ADME
Procedure: Plasma Stability: Procedure: […] Plasma was warmed to 37° C. prior to the experiment and centrifuged for 5 mins at 4000 rpm. […] Each time point was monitored in triplicate (0, 10, 30, 60 and 120 min). 4 uL/well aliquot of the working solution was mixed to the blank plasma and incubated at 37° C. AT each time point samples were quenched with ACN stop solution containing 200 ng/ml Tolbutamide & 200 ng/ml Labetalol at 1:3 ratio and mix well on shaker for 10 min then centrifuge at 4000 rpm for 15 min. A 100 ul aliquot of supernatant was mixed with 100 μL of ultra-pure and submitted for LC-MS/MS analysis.

[2] = Liver Microsome stability (In Vitro Metabolism); format: in vitro ADME; conditions: for Remaining (T = NCF60 min): no cofactor 60 min
Procedure: Working Compound solution: 10 uM in 50 mM potassium phosphate buffer with 9% MeOH and 1% DMSO
Microsome solution: working concentration 0.625 mg/ml
Stopping solution: Cold ACN with 200 ng/ml Tolbutamide and 200 ng/ml Labetalol (4° C.)
Procedure: In the well plates (T5, T10, T20, T30, T60, NCF60 (no cofactor 60)) 10 uL of the compound/control working solution was added (except T0 and matric blank) followed by microsome solution (80 uL) and the mixture was incubated at 37 C for about 10 mins. A solution of potassium phosphate (10 ul of 50 mM) was added to NCF60 well, incubated at 37 C and time counting started. After prewarming 10 ul of NADPH regenerating solution was added to each plate to start the reaction. At different time point 300 uL/well of stopping solution to terminate the reaction. The sampling plates were shaken for 10 mins and the centrifuged for 20 mins at 4000 rpm. The supernatant was half diluted with ultra pure water and the analyzed using LCMS.

What does the source list for `CC1C=CC=CC=CC=CC=CC=CC=CC(OC2OC(C)C(O)C(N)C2O)CC2OC(O)(CC(O)CC(O)C(O)CCC(O)CC(O)CC(=O)OC(C)C(C)C1O)CC(O)C2C(=O)NCC(O)CO` (mixture of isomers) [AJ]?
MIC C. albicans (C. albicans): 0.20 µM; MIC [1]: 0.329 µM; MIC A. fumigatus 91 (A. fumigatus 91): 1 µM; MIC C. glabrata (C. glabrata): 0.08 µM; MIC C. albicans SN250 (C. albicans SN250): 0.15 µM; MIC C. tropicalis (C. tropicalis): 0.2 µM; MIC A. fumigatus 1100 (A. fumigatus 1100): 0.4 µM; MIC C. krusei (C. krusei): 0.3 µM; MIC A. fumigatus 1163 (A. fumigatus 1163): 0.3 µM

With `CC1C=CC=CC=CC=CC=CC=CC=CC(OC2OC(C)C(O)C(N)C2O)CC2OC(O)(CC(O)CC(O)C(O)CCC(O)CC(O)CC(=O)OC(C)C(C)C1O)CC(O)C2C(=O)NCCS` (centres unmarked) [AB] as the compound, how does the “MIC C. albicans” value (C. albicans) read?
The value was 0.45 µM (≈ 0.442 µg/mL).

And the MIC [1]?
Its MIC is 0.706 µM.

And the “MIC A. fumigatus 91” value (A. fumigatus 91)?
Its value is 1 µM (≈ 0.983 µg/mL).

What about the “MIC C. glabrata” value (C. glabrata) of the same compound?
The value was 0.35 µM (≈ 0.344 µg/mL).

What about the “MIC C. albicans SN250” value (C. albicans SN250) of the same compound?
The value was 0.4 µM (≈ 0.393 µg/mL).

And the “MIC C. tropicalis” value (C. tropicalis)?
Its value is 0.45 µM (≈ 0.442 µg/mL).

What about the “MIC A. fumigatus 1100” value (A. fumigatus 1100) of the same compound?
The value was 1 µM (≈ 0.983 µg/mL).

What about the “MIC C. krusei” value (C. krusei) of the same compound?
Its value is 1 µM (≈ 0.983 µg/mL).

And the “MIC A. fumigatus 1163” value (A. fumigatus 1163)?
Its value is 1 µM (≈ 0.983 µg/mL).

For `CC(CO)NC(=O)C1C(O)CC2(O)CC(O)CC(O)C(O)CCC(O)CC(O)CC(=O)OC(C)C(C)C(O)C(C)C=CC=CC=CC=CC=CC=CC=CC(OC3OC(C)C(O)C(N)C3O)CC1O2` (centres unmarked) [AC], which “MIC C. albicans” value (C. albicans) is on record?
The value was 0.3 µM (≈ 0.294 µg/mL).

And the MIC [1]?
The MIC was 0.713 µM.

What about the “MIC A. fumigatus 91” value (A. fumigatus 91) of the same compound?
Its value is 2 µM (≈ 1.96 µg/mL).

And the “MIC C. glabrata” value (C. glabrata)?
Its value is 0.3 µM (≈ 0.294 µg/mL).

What about the “MIC C. albicans SN250” value (C. albicans SN250) of the same compound?
Its value is 0.3 µM (≈ 0.294 µg/mL).

And the “MIC C. tropicalis” value (C. tropicalis)?
Its value is 0.35 µM (≈ 0.343 µg/mL).

What about the “MIC A. fumigatus 1100” value (A. fumigatus 1100) of the same compound?
The value was 1 µM (≈ 0.981 µg/mL).

And the “MIC C. krusei” value (C. krusei)?
Its value is 0.45 µM (≈ 0.442 µg/mL).

And the “MIC A. fumigatus 1163” value (A. fumigatus 1163)?
The value was 1 µM (≈ 0.981 µg/mL).

Which “MIC C. albicans” value (C. albicans) does the source give for `CCC(CO)NC(=O)C1C(O)CC2(O)CC(O)CC(O)C(O)CCC(O)CC(O)CC(=O)OC(C)C(C)C(O)C(C)C=CC=CC=CC=CC=CC=CC=CC(OC3OC(C)C(O)C(N)C3O)CC1O2` (centres unmarked) [AD] here?
The value was 0.35 µM (≈ 0.348 µg/mL).

What about the MIC [1] of the same compound?
Its MIC is 0.731 µM.

And the “MIC A. fumigatus 91” value (A. fumigatus 91)?
Its value is 2 µM (≈ 1.99 µg/mL).

What about the “MIC C. glabrata” value (C. glabrata) of the same compound?
Its value is 0.3 µM (≈ 0.299 µg/mL).

What about the “MIC C. albicans SN250” value (C. albicans SN250) of the same compound?
Its value is 0.3 µM (≈ 0.299 µg/mL).

And the “MIC C. tropicalis” value (C. tropicalis)?
The value was 0.4 µM (≈ 0.398 µg/mL).

And the “MIC A. fumigatus 1100” value (A. fumigatus 1100)?
Its value is 1 µM (≈ 0.995 µg/mL).

And the “MIC C. krusei” value (C. krusei)?
The value was 0.5 µM (≈ 0.498 µg/mL).

And the “MIC A. fumigatus 1163” value (A. fumigatus 1163)?
Its value is 1 µM (≈ 0.995 µg/mL).

Which results are given for `CC1C=CC=CC=CC=CC=CC=CC=CC(OC2OC(C)C(O)C(N)C2O)CC2OC(O)(CC(O)CC(O)C(O)CCC(O)CC(O)CC(=O)OC(C)C(C)C1O)CC(O)C2C(=O)NCCN` (centres unmarked) [AM]?
% Remaining at 120 min (Plasma Stability; Human Plasma): 102%; Half Life (Plasma Stability; Human Plasma): >4.82 h; % Remaining at 120 min (Plasma Stability; Rat Plasma): 118%; Half Life (Plasma Stability; Rat Plasma): >4.82 h; CL ([2]; Dog liver microsomes): <9.6 µL/min/mg; CLint ([2]; Dog liver microsomes): <14 mL/min/kg; Remaining (T = 60 min) ([2]; Dog liver microsomes): 107%; T1/2 ([2]; Dog liver microsomes): >2.42 h; Remaining (T = NCF60 min) ([2]; Dog liver microsomes): 109%; CL ([2]; Human liver microsomes): <9.6 µL/min/mg; CLint ([2]; Human liver microsomes): <8.6 mL/min/kg; Remaining (T = 60 min) ([2]; Human liver microsomes): 101%; T1/2 ([2]; Human liver microsomes): >2.42 h; Remaining (T = NCF60 min) ([2]; Human liver microsomes): 115%; CL ([2]; Monkey liver microsomes): <9.6 µL/min/mg; CLint ([2]; Monkey liver microsomes): <13 mL/min/kg; Remaining (T = 60 min) ([2]; Monkey liver microsomes): 113%; T1/2 ([2]; Monkey liver microsomes): >2.42 h; Remaining (T = NCF60 min) ([2]; Monkey liver microsomes): 121%; CL ([2]; Mouse liver microsomes): <9.6 µL/min/mg; CLint ([2]; Mouse liver microsomes): <38 mL/min/kg; Remaining (T = 60 min) ([2]; Mouse liver microsomes): 109%; T1/2 ([2]; Mouse liver microsomes): >2.42 h; Remaining (T = NCF60 min) ([2]; Mouse liver microsomes): 176%; CL ([2]; Rat liver microsomes): <9.6 µL/min/mg; CLint ([2]; Rat liver microsomes): <17 mL/min/kg; Remaining (T = 60 min) ([2]; Rat liver microsomes): 113%; T1/2 ([2]; Rat liver microsomes): >2.42 h; Remaining (T = NCF60 min) ([2]; Rat liver microsomes): 83.1%

Which results are given for `CNC(=O)C1C(O)CC2(O)CC(O)CC(O)C(O)CCC(O)CC(O)CC(=O)OC(C)C(C)C(O)C(C)C=CC=CC=CC=CC=CC=CC=CC(OC3OC(C)C(O)C(N)C3O)CC1O2` (centres unmarked) [AN]?
% Remaining at 120 min (Plasma Stability; Human Plasma): 106%; Half Life (Plasma Stability; Human Plasma): >4.82 h; % Remaining at 120 min (Plasma Stability; Rat Plasma): 118%; Half Life (Plasma Stability; Rat Plasma): >4.82 h; CL ([2]; Dog liver microsomes): <9.6 µL/min/mg; CLint ([2]; Dog liver microsomes): <14 mL/min/kg; Remaining (T = 60 min) ([2]; Dog liver microsomes): 92.4%; T1/2 ([2]; Dog liver microsomes): >2.42 h; Remaining (T = NCF60 min) ([2]; Dog liver microsomes): 113%; CL ([2]; Human liver microsomes): <9.6 µL/min/mg; CLint ([2]; Human liver microsomes): <8.6 mL/min/kg; Remaining (T = 60 min) ([2]; Human liver microsomes): 104%; T1/2 ([2]; Human liver microsomes): >2.42 h; Remaining (T = NCF60 min) ([2]; Human liver microsomes): 127%; CL ([2]; Monkey liver microsomes): <9.6 µL/min/mg; CLint ([2]; Monkey liver microsomes): <13 mL/min/kg; Remaining (T = 60 min) ([2]; Monkey liver microsomes): 139%; T1/2 ([2]; Monkey liver microsomes): >2.42 h; Remaining (T = NCF60 min) ([2]; Monkey liver microsomes): 135%; CL ([2]; Mouse liver microsomes): <9.6 µL/min/mg; CLint ([2]; Mouse liver microsomes): <38 mL/min/kg; Remaining (T = 60 min) ([2]; Mouse liver microsomes): 102%; T1/2 ([2]; Mouse liver microsomes): >2.42 h; Remaining (T = NCF60 min) ([2]; Mouse liver microsomes): 131%; CL ([2]; Rat liver microsomes): <9.6 µL/min/mg; CLint ([2]; Rat liver microsomes): <17 mL/min/kg; Remaining (T = 60 min) ([2]; Rat liver microsomes): 106%; T1/2 ([2]; Rat liver microsomes): >2.42 h; Remaining (T = NCF60 min) ([2]; Rat liver microsomes): 93%

What does the source list for `CC1C=CC=CC=CC=CC=CC=CC=CC(OC2OC(C)C(O)C(N)C2O)CC2OC(O)(CC(O)CC(O)C(O)CCC(O)CC(O)CC(=O)OC(C)C(C)C1O)CC(O)C2C(=O)NC1CC1` (centres unmarked) [AR3]?
MIC C. albicans (C. albicans): 250 µM (≈ 241 µg/mL); Average MIC [1]: 438 µM; MIC C. tropicalis (C. tropicalis): 250 µM (≈ 241 µg/mL); MIC C. krusei (C. krusei): 250 µM (≈ 241 µg/mL); MIC A. fumigatus 1163 (A. fumigatus 1163): 500 µM (≈ 482 µg/mL)

With `CC1C=CC=CC=CC=CC=CC=CC=CC(OC2OC(C)C(O)C(N)C2O)CC2OC(O)(CC(O)CC(O)C(O)CCC(O)CC(O)CC(=O)OC(C)C(C)C1O)CC(O)C2C(=O)NC1CCC1` (centres unmarked) [AR4] as the compound, how does the “Average MIC” value [1] read?
Its value is 750 µM.

And the “MIC C. albicans SN250” value (C. albicans SN250)?
The value was 500 µM (≈ 489 µg/mL).

What about the “MIC C. tropicalis” value (C. tropicalis) of the same compound?
Its value is 500 µM (≈ 489 µg/mL).

What about the “MIC C. krusei” value (C. krusei) of the same compound?
Its value is 550 µM (≈ 537 µg/mL).

And the “MIC A. fumigatus 1163” value (A. fumigatus 1163)?
Its value is 1000 µM (≈ 977 µg/mL).
